Data: ChEMBL document CHEMBL1201861, “Genomics of Drug Sensitity in Cancer screening data, Wellcome Trust Sanger Institute”
pIC50: −log10 of the molar value.

How the values were obtained:
[1] = tested on: CaR-1; test: cells; format: functional, cell-based; conditions: Homo sapiens;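 further: growth inhibition of human CaR-1 cancer cells, read out with a cell viability assay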
Description: SANGER: Inhibition of human CaR-1 cell growth in a cell viability assay.

[2] = tested on: D-392MG; test: cells; format: functional, cell-based; conditions: Homo sapiens
[3] = tested on: DMS-273; test: cells; format: functional, cell-based; conditions: Homo sapiens
Description: SANGER: Inhibition of human DMS-273 cell growth in a cell viability assay.

[4] = tested on: Daoy; test: cells; format: functional, cell-based; conditions: Homo sapiens;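 further: daoy cell growth inhibition, read out as cell viability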
Description: SANGER: Inhibition of human Daoy cell growth in a cell viability assay.

[5] = tested on: EFO-27; test: cells; format: functional, cell-based; conditions: Homo sapiens;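 further: growth inhibition of EFO-27 cells, read out with a cell viability assay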
Description: SANGER: Inhibition of human EFO-27 cell growth in a cell viability assay.

[6] = tested on: FaDu; test: cells; format: functional, cell-based; conditions: Homo sapiens;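 further: cell viability readout of growth inhibition in FaDu cells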
Description: SANGER: Inhibition of human FADU cell growth in a cell viability assay.

[7] = tested on: GAMG; test: cells; format: functional, cell-based; conditions: Homo sapiens;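 further: cell growth inhibition measured by a viability assay in the GAMG human cell line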
Description: SANGER: Inhibition of human GAMG cell growth in a cell viability assay.

[8] = tested on: HCC1569; test: cells; format: functional, cell-based; conditions: Homo sapiens;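 further: growth inhibition of human HCC1569 cells, read out with a cell viability assay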
Description: SANGER: Inhibition of human HCC1569 cell growth in a cell viability assay.

[9] = tested on: HGC-27; test: cells; format: functional, cell-based; conditions: Homo sapiens;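 further: growth inhibition of human HGC-27 cells, read out in a cell viability assay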
Description: SANGER: Inhibition of human HGC-27 cell growth in a cell viability assay.

[10] = tested on: HLE; test: cells; format: functional, cell-based; conditions: Homo sapiens;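 further: growth inhibition of human HLE cells, read out by a cell viability assay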
Description: SANGER: Inhibition of human HLE cell growth in a cell viability assay.

[11] = tested on: HT1197; test: cells; format: functional, cell-based, HT-1197; conditions: Homo sapiens
Description: SANGER: Inhibition of human HT-1197 cell growth in a cell viability assay.

[12] = tested on: IMR-5; test: cells; format: functional, cell-based; conditions: Homo sapiens;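 further: growth inhibition of human IMR-5 cells, read out with a cell viability assay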
Description: SANGER: Inhibition of human IMR-5 cell growth in a cell viability assay.

[13] = tested on: KARPAS-422; test: cells; format: functional, cell-based; conditions: Homo sapiens
Description: SANGER: Inhibition of human KARPAS-422 cell growth in a cell viability assay.

[14] = tested on: KMS-12-PE; test: cells; format: functional, cell-based; conditions: Homo sapiens;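 further: growth inhibition of human KMS-12-PE cells, measured with a cell viability assay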
Description: SANGER: Inhibition of human KMS-12-PE cell growth in a cell viability assay.

[15] = tested on: KOSC-2; test: cells; format: functional, cell-based; conditions: Homo sapiens;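 further: growth inhibition of KOSC-2 cells, read out by a cell viability assay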
Description: SANGER: Inhibition of human KOSC-2 cell growth in a cell viability assay.

[16] = tested on: KYSE-520 cell line; test: cells; format: functional, cell-based; conditions: Homo sapiens;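 further: growth inhibition of human KYSE-520 cells, read out with a viability assay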
Description: SANGER: Inhibition of human KYSE-520 cell growth in a cell viability assay.

[17] = tested on: LN-405; test: cells; format: functional, cell-based; conditions: Homo sapiens
Description: SANGER: Inhibition of human LN-405 cell growth in a cell viability assay.

[18] = tested on: LP-1; test: cells; format: functional, cell-based; conditions: Homo sapiens;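 further: growth inhibition of human LP-1 cells, with the read-out taken from a cell viability assay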
Description: SANGER: Inhibition of human LP-1 cell growth in a cell viability assay.

[19] = tested on: LoVo; test: cells; format: functional, cell-based; conditions: Homo sapiens;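 further: growth inhibition of human LoVo cells, read out with a cell viability assay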
Description: SANGER: Inhibition of human LoVo cell growth in a cell viability assay.

[20] = tested on: MC-CAR; test: cells; format: functional, cell-based; conditions: Homo sapiens;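 further: growth inhibition of the human MC-CAR cell line, read out by a cell viability assay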
Description: SANGER: Inhibition of human MC-CAR cell growth in a cell viability assay.

[21] = tested on: MDA-MB-415; test: cells; format: functional, cell-based; conditions: Homo sapiens
[22] = tested on: NCCIT; test: SANGER: Inhibition of human NCCIT cell growth in a cell viability assay.; format: functional, cell-based
[23] = tested on: NCI-H1522; test: cells; format: functional, cell-based; conditions: Homo sapiens;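 further: growth inhibition of NCI-H1522 cells, read out with a cell viability assay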
Description: SANGER: Inhibition of human NCI-H1522 cell growth in a cell viability assay.

[24] = tested on: NCI-H1623; test: cells; format: functional, cell-based; conditions: Homo sapiens;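 further: cell viability assay used as the read-out for growth inhibition of NCI-H1623 cells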
Description: SANGER: Inhibition of human NCI-H1623 cell growth in a cell viability assay.

[25] = tested on: NCI-H1792; test: cells; format: functional, cell-based; conditions: Homo sapiens;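 further: growth inhibition of human NCI-H1792 cells, read out as cell viability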
Description: SANGER: Inhibition of human NCI-H1792 cell growth in a cell viability assay.

[26] = tested on: NCI-H1793; test: cells; format: functional, cell-based; conditions: Homo sapiens;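 further: cell growth inhibition, read out by a cell viability assay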
Description: SANGER: Inhibition of human NCI-H1793 cell growth in a cell viability assay.

[27] = tested on: NCI-H1882; test: cells; format: functional, cell-based; conditions: Homo sapiens;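 further: growth inhibition of the cell line, determined with a viability assay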
Description: SANGER: Inhibition of human NCI-H1882 cell growth in a cell viability assay.

[28] = tested on: NCI-H2087; test: cells; format: functional, cell-based; conditions: Homo sapiens;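 further: growth inhibition determined with a cell viability readout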
Description: SANGER: Inhibition of human NCI-H2087 cell growth in a cell viability assay.

[29] = tested on: NCI-H2141; test: cells; format: functional, cell-based; conditions: Homo sapiens;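 further: growth inhibition of human NCI-H2141 cells, read out with a cell viability assay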
Description: SANGER: Inhibition of human NCI-H2141 cell growth in a cell viability assay.

[30] = tested on: NCI-H2452; test: cells; format: functional, cell-based; conditions: Homo sapiens;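 further: growth inhibition of NCI-H2452 cells, read out with a cell viability assay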
Description: SANGER: Inhibition of human NCI-H2452 cell growth in a cell viability assay.

[31] = tested on: NCI-H345; test: cells; format: functional, cell-based; conditions: Homo sapiens;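 further: growth inhibition of NCI-H345 cells measured with a cell viability assay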
Description: SANGER: Inhibition of human NCI-H345 cell growth in a cell viability assay.

[32] = tested on: NCI-H716; test: cells; format: functional, cell-based; conditions: Homo sapiens;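 further: growth inhibition of human NCI-H716 cells, measured by a cell viability assay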
Description: SANGER: Inhibition of human NCI-H716 cell growth in a cell viability assay.

[33] = tested on: PANC-03-27; test: cells; format: functional, cell-based; conditions: Homo sapiens
Description: SANGER: Inhibition of human PANC-03-27 cell growth in a cell viability assay.

[34] = tested on: RPMI-6666; test: cells; format: functional, cell-based; conditions: Homo sapiens
Description: SANGER: Inhibition of human RPMI-6666 cell growth in a cell viability assay.

[35] = tested on: RT-112; test: cells; format: functional, cell-based; conditions: Homo sapiens
Description: SANGER: Inhibition of human RT-112 cell growth in a cell viability assay.

[36] = tested on: SIG-M5; test: cells; format: functional, cell-based; conditions: Homo sapiens;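 further: cell viability assay read-out, measuring how strongly growth of cultured human SIG-M5 cells is inhibited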
Description: SANGER: Inhibition of human SIG-M5 cell growth in a cell viability assay.

[37] = tested on: SIMA; test: cells; format: functional, cell-based; conditions: Homo sapiens;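 further: growth inhibition of SIMA cells, measured with a cell viability readout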
Description: SANGER: Inhibition of human SIMA cell growth in a cell viability assay.

[38] = tested on: SJRH30; test: cells; format: functional, cell-based; conditions: Homo sapiens;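 further: growth inhibition of human SJRH30 cells, read out with a cell viability assay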
Description: SANGER: Inhibition of human SJRH30 cell growth in a cell viability assay.

[39] = tested on: SK-N-AS; test: cells; format: functional, cell-based; conditions: Homo sapiens;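 further: growth inhibition of human SK-N-AS cells, measured with a cell viability assay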
Description: SANGER: Inhibition of human SK-N-AS cell growth in a cell viability assay.

[40] = tested on: SN12C; test: cells; format: functional, cell-based; conditions: Homo sapiens;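 further: growth inhibition of human SN12C cells, measured by a cell viability assay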
Description: SANGER: Inhibition of human SN12C cell growth in a cell viability assay.

[41] = tested on: SNU-C1; test: cells; format: functional, cell-based; conditions: Homo sapiens;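 further: growth inhibition of SNU-C1 human cells, read out by a cell viability assay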
Description: SANGER: Inhibition of human SNU-C1 cell growth in a cell viability assay.

[42] = tested on: SW1088; test: cells; format: functional, cell-based; conditions: Homo sapiens;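 further: growth inhibition of human SW1088 cells, read out by a cell viability assay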
Description: SANGER: Inhibition of human SW1088 cell growth in a cell viability assay.

[43] = tested on: SW13; test: cells; format: functional, cell-based; conditions: Homo sapiens;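 further: IC50 is inhibition of SW13 cell growth, read out with a cell viability assay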
Description: SANGER: Inhibition of human SW13 cell growth in a cell viability assay.

[44] = tested on: SW1463; test: cells; format: functional, cell-based; conditions: Homo sapiens;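 further: growth inhibition of SW1463 cells, determined with a cell viability assay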
Description: SANGER: Inhibition of human SW1463 cell growth in a cell viability assay.

[45] = tested on: SW837; test: cells; format: functional, cell-based; conditions: Homo sapiens;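 further: growth inhibition of SW837 cells, determined with a cell viability assay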
Description: SANGER: Inhibition of human SW837 cell growth in a cell viability assay.

[46] = tested on: SW948; test: cells; format: functional, cell-based; conditions: Homo sapiens;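 further: growth inhibition of SW948 cells, read out with a cell viability assay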
Description: SANGER: Inhibition of human SW948 cell growth in a cell viability assay.

[47] = tested on: T84; test: cells; format: functional, cell-based; conditions: Homo sapiens;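 further: growth inhibition measured with a cell viability readout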
Description: SANGER: Inhibition of human T84 cell growth in a cell viability assay.

[48] = tested on: 5637; test: cells; format: functional, cell-based; conditions: Homo sapiens
Description: SANGER: Inhibition of human 5637 cell growth in a cell viability assay.

[49] = tested on: 639-V; test: cells; format: functional, cell-based; conditions: Homo sapiens;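 further: growth inhibition of 639-V cells, read out with a cell viability assay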
Description: SANGER: Inhibition of human 639-V cell growth in a cell viability assay.

[50] = tested on: 769-P; test: cells; format: functional, cell-based; conditions: Homo sapiens
Description: SANGER: Inhibition of human 769-P cell growth in a cell viability assay.

[51] = tested on: 786-0; test: cells; format: functional, cell-based; conditions: Homo sapiens
Description: SANGER: Inhibition of human 786-0 cell growth in a cell viability assay.

[52] = tested on: 8505C; test: cells; format: functional, cell-based; conditions: Homo sapiens
Description: SANGER: Inhibition of human 8505C cell growth in a cell viability assay.

[53] = tested on: A-427; test: cells; format: functional, cell-based; conditions: Homo sapiens;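 further: growth inhibition of human A-427 cells, read out by a cell viability assay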
Description: SANGER: Inhibition of human A427 cell growth in a cell viability assay.

[54] = tested on: ABC-1; test: cells; format: functional, cell-based; conditions: Homo sapiens;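 further: growth inhibition of human ABC-1 cells, read out by a cell viability assay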
Description: SANGER: Inhibition of human ABC-1 cell growth in a cell viability assay.

[55] = tested on: ARH-77; test: cells; format: functional, cell-based; conditions: Homo sapiens;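 further: growth inhibition of ARH-77 cells, read out by a cell viability assay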
Description: SANGER: Inhibition of human ARH-77 cell growth in a cell viability assay.

[56] = tested on: BXPC-3; test: cells; format: functional, cell-based; conditions: Homo sapiens;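 further: growth inhibition of human BxPC-3 cells, read out by a cell viability assay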
Description: SANGER: Inhibition of human BxPC-3 cell growth in a cell viability assay.

[57] = tested on: C-33-A; test: cells; format: functional, cell-based; conditions: Homo sapiens;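 further: cell viability assay measuring growth inhibition of C-33-A cells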
Description: SANGER: Inhibition of human C-33-A cell growth in a cell viability assay.

[58] = tested on: CAL-27; test: cells; format: functional, cell-based; conditions: Homo sapiens;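 further: Viability-based readout, IC50 reflecting inhibition of CAL-27 cell growth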
Description: SANGER: Inhibition of human CAL-27 cell growth in a cell viability assay.

[59] = tested on: CAL-62; test: cells; format: functional, cell-based; conditions: Homo sapiens;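 further: growth inhibition of CAL-62 cells, read out with a cell viability assay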
Description: SANGER: Inhibition of human CAL-62 cell growth in a cell viability assay.

[60] = tested on: THP-1; test: cells; format: functional, cell-based; conditions: Homo sapiens;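 further: growth inhibition of THP-1 cells, read out via a cell viability assay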
Description: SANGER: Inhibition of human THP-1 cell growth in a cell viability assay.

[61] = tested on: UMC-11; test: cells; format: functional, cell-based; conditions: Homo sapiens;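 further: growth inhibition of UMC-11 cells, read out with a cell viability assay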
Description: SANGER: Inhibition of human UMC-11 cell growth in a cell viability assay.

[62] = tested on: WM-115; test: cells; format: functional, cell-based; conditions: Homo sapiens
Description: SANGER: Inhibition of human WM-115 cell growth in a cell viability assay.

[63] = tested on: WSU-NHL; test: cells; format: functional, cell-based; conditions: Homo sapiens;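 further: growth inhibition of human WSU-NHL cells, read out with a cell viability assay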
Description: SANGER: Inhibition of human WSU-NHL cell growth in a cell viability assay.

[64] = tested on: CAPAN-1; test: cells; format: functional, cell-based; conditions: Homo sapiens
Description: SANGER: Inhibition of human CAPAN-1 cell growth in a cell viability assay.

Structure (SMILES): CCNC(=O)c1noc(-c2cc(C(C)C)c(O)cc2O)c1-c1ccc(CN2CCOCC2)cc1 [LUMINESPIB]
- pIC50 [1]: < 6.59
- pIC50 [2]: 7.42
- pIC50 [3]: 7.46
- pIC50 [4]: 8.16
- pIC50 [5]: 7.99
- pIC50 [6]: 7.17
- pIC50 [7]: 7.86
- pIC50 [8]: 7.44
- pIC50 [9]: 7.75
- pIC50 [10]: 7.22
- pIC50 [11]: 7.77
- pIC50 [12]: 7.35
- pIC50 [13]: 6.85
- pIC50 [14]: 6.89
- pIC50 [15]: 7.39
- pIC50 [16]: 7.58
- pIC50 [17]: < 6.59
- pIC50 [18]: < 6.59
- pIC50 [19]: 7.41
- pIC50 [20]: 7.34
- pIC50 [21]: 6.70
- pIC50 [22]: 7.18
- pIC50 [23]: 6.83
- pIC50 [24]: < 6.59
- pIC50 [25]: 7.34
- pIC50 [26]: < 6.59
- pIC50 [27]: < 6.59
- pIC50 [28]: 7.48
- pIC50 [29]: 6.62
- pIC50 [30]: < 6.59
- pIC50 [31]: < 6.59
- pIC50 [32]: < 6.59
- pIC50 [33]: 7.93
- pIC50 [34]: 8.07
- pIC50 [35]: 8.27
- pIC50 [36]: 8.31
- pIC50 [37]: < 6.59
- pIC50 [38]: 7.02
- pIC50 [39]: < 6.59
- pIC50 [40]: 6.61
- pIC50 [41]: < 6.59
- pIC50 [42]: < 6.59
- pIC50 [43]: 7.34
- pIC50 [44]: < 6.59
- pIC50 [45]: 7.52
- pIC50 [46]: < 6.59
- pIC50 [47]: 7.88
- pIC50 [48]: 7.55
- pIC50 [49]: 8.31
- pIC50 [50]: 7.97
- pIC50 [51]: 8.18
- pIC50 [52]: 8.09
- pIC50 [53]: 7.89
- pIC50 [54]: 7.06
- pIC50 [55]: 7.27
- pIC50 [56]: 7.36
- pIC50 [57]: 7.82
- pIC50 [58]: 7.09
- pIC50 [59]: 7.59
- pIC50 [60]: 6.81
- pIC50 [61]: < 6.59
- pIC50 [62]: < 6.59
- pIC50 [63]: 7.13
- pIC50 [64]: 7.15
